≈ marks a conversion by molar mass, not a printed value.
Columns and labels:
equine erythrocytes = assay: Hemolysis assay; settings: up to 128 μg/mL, 10 min, room temperature
[1] = test system: Anaerobes (n > 20 strains); assay: organism not typed; format: cell-based
[2] = test system: M. fortuitum (n = 11) clinical isolates; assay: MIC against rapid-growing NTM clinical isolates; format: cell-based; settings: M. fortuitum (n = 11)
physchem = format: physicochemical; settings: pH 7.4, aqueous buffer, thermodynamic from solid
Protocol: ADMET assays were performed through NIAID Preclinical Services and Eurofins. Potential for cytotoxicity was monitored in HepG2 cells after 72 h growth in the presence of test compounds, either prepared as 10-point 3-fold serial dilutions or at a fixed 10 μM concentration. Cell viability was measured using the CellTiter-Glo® Luminescent Cell Viability Assay (Promega) or via fluorescent image analysis. Cytotoxicity was expressed as IC50 or as percent reduction of viable cells relative to a reference compound. Metabolic stability of compounds was evaluated via incubation with human liver microsomes at 37°C and quantitative analysis of parent compound by LC-MS/MS in samples removed at 0, 5, 15, 30, and 45 min (Obach, [1999]). For cytochrome P450 (CYP) inhibition assays, compounds were prepared as a 7-point dilution series and incubated with human liver microsomes in buffer containing 2 mM NADPH and probe substrate. […] Thermodynamic solubility of compounds in aqueous media was determined by incubation in 50 mM potassium phosphate buffer (pH 7.4) for 24 h, followed by HPLC-UV detection of compound in the filtrate (Analiza, Cleveland, OH, United States).

M. chimaera 1502055 = assay: MIC, Middlebrook medium (7H9 + OADC, 7 days); format: cell-based; settings: 168 h; M. chimaera 1502055; read-out: MIC
[3] = test system: M. peregrinum ATCC 700686; assay: MIC, broth microdilution with resazurin (MHB, 3 days); format: cell-based; settings: Mycolicibacterium peregrinum, ATCC700686; M. peregrinum ATCC 700686; read-out: MIC
E. faecalis ATCC 29212 = assay: MIC, spectrum of activity; format: cell-based; settings: Enterococcus faecalis, ATCC29212; E. faecalis ATCC 29212; read-out: MIC
M. abscessus ATCC 19977 = assay: MIC, broth microdilution with resazurin (MHB, 3 days); format: cell-based; settings: Mycobacteroides abscessus, ATCC19977; M. abscessus ATCC 19977; read-out: MIC
Mtb = assay: microbe, parasite or virus in culture; format: cell-based, M. tuberculosis; settings: Mycobacterium tuberculosis
[4] = test system: mycolic acid transfer in Mabs ATCC19977; assay: Metabolic labeling with [14C]acetate; format: cell-based, M. abscessus; settings: 2x and 10x MIC
[5] = test system: M. chelonae (n = 11) clinical isolates; assay: MIC against rapid-growing NTM clinical isolates; format: cell-based; settings: M. chelonae (n = 11)
Other NTM (n = 12) = assay: MIC against rapid-growing NTM clinical isolates; format: cell-based; settings: Other NTM (n = 12)

CC12CC3CC(C)(C1)CC(C(=O)Nc1nc4ccc(OC(F)(F)F)cc4s1)(C3)C2 [CRS400226]
Hemolysis (equine erythrocytes): 128 µg/mL
MIC [1]: > 16 µg/mL
MIC range [2]: 0.12 to 0.5 µg/mL
MIC90 ([2]; Mycolicibacterium fortuitum, read-out: MIC90): 0.5 µg/mL (≈ 1.18 µM)
solubility at 24 h (physchem): < 3 µM
MIC (M. chimaera 1502055): 1 µg/mL
MIC [3]: ≤ 0.06 µg/mL
MIC (E. faecalis ATCC 29212): > 64 µg/mL
MIC (M. abscessus ATCC 19977): 0.25 µg/mL (≈ 0.589 µM)
MBC (Mtb): 10.6 µg/mL (≈ 25 µM)
effect on mycolic acid transfer to arabinogalactan and trehalose dimycolates [4]: concentration-dependent inhibition of mycolic acid transfer
MIC range [5]: 0.5–0.5 μg/mL
MIC90 ([5]; Mycobacteroides chelonae, read-out: MIC90): 0.5 µg/mL (≈ 1.18 µM)
MIC range (Other NTM (n = 12)): 0.12 to 1 µg/mL
MIC90 (Other NTM (n = 12); read-out: MIC90): 0.5 µg/mL (≈ 1.18 µM)
lung histology (Mabs 21; after 4 weeks of treatment): only very mild areas of airway-centric inflammation
reduction of lung CFU compared to the vehicle control (Mabs 21; intratracheal 25 mg/kg once daily, 5 days per week, 4 weeks, 5% corn oil/saline emulsion): 0.64 Log10 CFU
tolerability (Mabs 21; up to 4 weeks of treatment, intratracheal 25 mg/kg): well tolerated

Source: paper PMC6158578, “Optimization and Lead Selection of Benzothiazole Amide Analogs Toward a Novel Antimycobacterial Agent” (Frontiers in Microbiology, 2018)
